Experimental data: article PMC12521730, “Quantitative dual-isotope preclinical SPECT/CT imaging and biodistribution of the mercury-197m/g theranostic pair with [^197m/gHg]HgCl2 and a [^197m/gHg]Hg-tetrathiol complex as a platform for radiopharmaceutical development” (EJNMMI Radiopharmacy and Chemistry, 2025)

What was measured:
[1] = Human serum stability assay (SDS-PAGE); assay type: in vitro ADME; settings: 37 °C, 72 h
Experimental: To the [^197m/gHg][Hg(Tetrathiol)]^2− (prepared as described above) or radiolabeling controls (DMSO instead of the ligand) was diluted in human serum (1:1 v/v dilution), and the solutions were incubated at 37 °C over 72 h. The metal-complex stabilities were monitored over 72 h using SDS-PAGE following our previously reported protocols (Randhawa et al. [2023]; Tosato et al. [2024]). At each time point, an aliquot (10 μL) of the reaction mixture was mixed with Laemmli sample buffer (10 μL) and was directly loaded onto the SDS-PAGE gel. The SDS-PAGE was run at ambient temperature and 150 V until the dye front reached the resolving gel (1 h). Following electrophoresis, the gel was scanned with the radio-TLC scanner to determine the percentage of intact complex. The same protocol was used with free [^197m/gHg]Hg^2+ and the ^197m/gHg^2+-complexes diluted in phosphate-buffered saline (PBS) (5 µL; 1:1 v/v dilution) to assess their electrophoretic mobility.

[2] = L-Glutathione (GSH) competition assay; assay type: physicochemical; settings: 37 °C, 72 h, 2.12 mM GSH
Experimental: GSH competition assay procedures closely followed those previously developed by our group (Randhawa et al. [2023]). To the [^197m/gHg][Hg(Tetrathiol)]^2− (prepared as described above) or radiolabeling controls (DMSO instead of the ligand) was added to a 50 mM L-glutathione (GSH) solution (1:22 v/v GSH:reaction solution dilution), and the mixtures were incubated at 37 °C over 72 h. The final GSH concentration was chosen to mimic in vivo conditions within cells (2.12 mM) (Dickinson and Forman [2002]). The proportion of intact radiolabeled complex was monitored over the course of 72 h using iTLC-SG and L-glutathione (50 mM) as the mobile phase. Under these conditions, uncomplexed ^197m/gHg^2+ resulting from GSH transchelation traveled to the solvent front (Rf = 1) while intact [^197m/gHg][Hg(Tetrathiol)]^2− remained at the baseline (Rf = 0).

[3] = Stable metal competition assay, biologically relevant metal cocktail; assay type: physicochemical; settings: tenfold excess to chelator, 113 h, ambient temperature
Experimental: (§1) To the [^197m/gHg][Hg(Tetrathiol)]^2− (prepared as described above) or radiolabeling controls (DMSO instead of the ligand) 10 µL of a 10 mM metal cocktail (solution of biologically relevant metals, ZnCl2, FeCl3, CuCl2, MgCl2 and CoCl2), 10 mM AuCl3 or 10 mM of HgCl2, in water was added. The final solution contained tenfold excess of stable metal to the chelators and 10^6-fold excess of the stable metal to ^197m/gHg in solution. The mixtures were incubated at RT over 113 h. The proportion of intact radiolabeled complex was monitored over the course of 113 h using iTLC-SG and DMSA solution (50 mM, pH 5) as the mobile phase. Under these conditions, uncomplexed ^197m/gHg^2+ resulting from stable metal transchelation traveled to the solvent front (Rf = 1) while intact [^197m/gHg][Hg(Tetrathiol)]^2− remained at the baseline (Rf = 0).

[4] = Stable metal competition assay, AuCl3; assay type: physicochemical; settings: tenfold excess to chelator, 113 h, ambient temperature
Experimental: as §1

[5] = Stable metal competition assay, HgCl2; assay type: physicochemical; settings: tenfold excess HgCl2
Experimental: as §1

[6] = LogD7.4 shake-flask measurement (n-octanol/PBS); assay type: physicochemical; settings: n-octanol/PBS pH 7.4, shake-flask
Experimental: Aliquots of [^197m/gHg][Hg(Tetrathiol)]^2− (prepared as described above) (10 μL) were added to a biphasic mixture of n-octanol (700 μL) and phosphate buffered saline (PBS, 700 μL, pH 7.4). The mixture was vortexed for 2 min at ambient temperature and then separated via centrifugation (10 min, 3000 rpm). Aliquots of n-octanol (100 μL) and PBS (100 μL) were collected, and the activity in each portion was determined via gamma spectroscopy. LogD7.4 is defined as log10[(activity in n-octanol phase)/(activity in buffer phase)].

SMILES: O=C(CC[S-])OCC(COC(=O)CC[S-])(COC(=O)CC[S-])COC(=O)CC[S-].[Hg+2] [[^197m/gHg]Hg-Tetrathiol]
- intact complex in human serum [1]: 86 ± 1%
- stability when challenged against GSH [2]: no evidence of decomposition or transchelation
- demetallation against mixture of biologically relevant metals [3]: no signs of demetallation
- demetallation against AuCl3 [4]: no signs of demetallation
- intact complex in competition with HgCl2 ([5]; 113 h): 18 ± 10%
- intact complex in competition with HgCl2 ([5]; within 2 h): 71 ± 10%
- logD7.4 [6]: 0.35 ± 0.1
